By IC50 is commonly meant the concentration that inhibits the measured activity by half. In general, EC50 refers to the concentration that produces a half-maximal response.

5 compounds from US20220313651A1, “INHIBITORS OF ZIKA VIRUS INFECTION” (priority 2019, published 2022) can be followed below.

Structures are written as SMILES. Where two headings read alike, the source gives them in different places.

One experiment deals with ZIKV PRVABC59 strain. Put plainly: Combinatorial effects of gossypol with other Z-medicaments, ZIKV PRVABC59. The experiment is classed as cell-based, Zika virus (ZIKV). The note with it: for Fold of Enhancement: IC50 alone / in mixture; for CI (combination index): named compound in combination with gossypol. On the procedure: The unbound viruses and Z-medicaments were removed, and the cells were cultured at 37° C. for 4-5 days, followed by staining with 0.5% crystal violet. The Z-medicaments without combinations were used as controls. The IC50 of the Z-medicaments was calculated as described above.
The Z-medicaments were then analyzed for synergistic effects based on the combination index (CI) and IC50 values using the CalcuSyn program. Specifically, CI values <1 and >1 indicate synergy and antagonism, respectively. Synergy was further identified as five different categories: CI values <0.1, 0.1-0.3, 0.3-0.7, 0.7-0.85, and 0.85-0.90 indicate very strong synergism, strong synergism, synergism, moderate synergism, and slight synergism, respectively. Fold enhancement of anti-ZIKV potency is expressed as the ratio of molar concentrations of the Z-medicaments tested alone and in the mixture.

For experiment [1], the target named is ZIKV full-length E protein (Zika virus, UniProt Q32ZE1). The experiment in a line: ELISA binding to ZIKV full-length E protein. On the procedure:
(§1) Binding of compounds (NPs) to ZIKV full-length E (FIG. 3A), EDIII (FIG. 3B), and NS2B-NS3 (FIG. 3C) proteins, was detected by ELISA. The percent binding was reported in the presence or absence of serially diluted NPs using the formula (1-[E/EDIII-NP]/[E/EDIII])×100 (for E/EDIII binding) or (1-[NS2B-NS3-NP]/[NS2B-NS3])×100 (for NSEB-NS3 binding). […] The concentrations of ZIKV EDIII and mAbs were 1.5 and 0.5 μg/ml, respectively. […] The concentrations of substrate (Bz-Nle-Lys-Lys-Arg-AMC) and ZIKV NS2B-NS3 protein were 4 μM and 1 μg/ml, respectively. The percent inhibition of protease activity was calculated in the presence or absence of serially diluted compounds using the formula (1-[NS2B-NS3-substrate-NP]/[NS2B-NS3-substrate])×100. The IC50 values were calculated based on the percent inhibition. The data are expressed as mean±s.e.m. (n=4).
(§2) The data are expressed as mean±s.e.m. (n=4), and DMSO was used as negative control. Surface plasmon resonance (SPR) analysis of the binding between ST087010 and ZIKV EDIII (FIG. 6D) or NS2B-NS3 (FIG. 6E) protein was performed. Binding affinity was shown as KD (equilibrium dissociation constant).
(§3) The binding between the Z-medicament and ZIKV full-length E protein, EDIII protein (E residues 298-409 fused with a C-terminal human Fc), or NS2B-NS3 protease was carried out by ELISA. Briefly, ELISA plates were pre-coated with the proteins described above at 4° C. overnight, and blocked with 2% fat-free milk at 37° C. for 2 h. Serial dilutions of the Z-medicament or DMSO (control) were then added to the plates and incubated at 37° C. for 2 h. The plates were washed with PBS containing Tween-20 (PBST), and incubated at 37° C. for 1 h with ZIKV EDIII-specific human mAb ZKA64-LALA (0.5 μg/ml) (for binding to ZIKV full-length E and EDIII proteins), or mouse sera specific to ZIKV NS2B-NS3 (for binding to NS2B-NS3 protease). The plates were washed with PBST, and incubated with horseradish peroxidase (HRP)-conjugated anti-human IgG-Fab (1:3000) or anti-mouse IgG (1:3000) antibody at 37° C. for 1 h. The 3,3′,5,5′-tetramethylbenzidine (TMB) substrate was added to the plates, and the reaction was stopped by 1 N H2SO4. Absorbance at 450 nm (A450 value) was measured by ELISA microplate reader.
(§4) Briefly, ELISA plates were coated with each protein (1 μg/ml) at 4° C. overnight, and were then incubated with blocking buffer containing 2% fat-free milk in PBST at 37° C. for 2 h. The above compounds, or DMSO control, at serial dilutions were added to the plates, and incubated at 37° C. for 2 h. After three washes using PBST, the plates were incubated at 37° C. for 2 h with ZIKV EDIII-specific human mAb ZKA64-LALA (0.5 μg/ml) (for binding to ZIKV full-length E or EDIII protein), or ZIKV NS2B-NS3-specific mouse sera (for binding to NS2B-NS3 protein). After further washes, the plates were incubated with HRP-conjugated anti-human IgG-Fab (1:3,000) or anti-mouse IgG (1:3,000) antibody at 37° C. for 1 h. The plates were incubated with substrate TMB, and the reaction was stopped by addition of 1 N H2SO4. Absorbance at 450 nm (A450 values) was measured by an ELISA microplate reader. EC50 values were calculated.
On the technique in general: In an ELISA, binding on a coated surface is turned into a signal by an enzyme label.

The next experiment concerns the target T1, ZIKV NS2B-NS3 protease (Zika virus, UniProt Q32ZE1).
T1 construct: 49-97) and NS2 protein (residues 1-185) through a covalent; made in house; host or cells: E. coli
The experiment in a line: ELISA binding to ZIKV NS2B-NS3 protease. On the procedure:
as §1, §2, §3
as §4, with “h.” for “h. The plates were incubated with substrate TMB, and the reaction was stopped by addition of 1 N H2SO4. Absorbance at 450 nm (A450 values) was measured by an ELISA microplate reader. EC50 values were calculated.”

For experiment [2], the system named is ZIKV human strain PAN2016 (2016/Panama). The experiment in a line: Plaque reduction inhibition assay in Vero E6 cells, ZIKV PAN2016. The experiment is classed as cell-based, Zika virus (ZIKV). On the procedure: (§5) A plaque reduction inhibition assay was carried out to measure the inhibitory activity of Z-medicaments against infections of ZIKV and DENV. […] The compound-virus mixtures were then transferred to Vero E6 cells (10^5/well) and incubated at 37° C. for 1 h.

Experiment [3] concerns ZIKV human strain R103451 (2015/Honduras). Put plainly: Plaque reduction inhibition assay in Vero E6 cells, ZIKV R103451. The experiment is classed as cell-based, Zika virus (ZIKV). On the procedure: as §5
Experiment [4] has as its system ZIKV human strain PLCal_ZV (2013/Thailand). The experiment in a line: Plaque reduction inhibition assay in Vero E6 cells, ZIKV PLCal_ZV. The experiment is classed as cell-based, Zika virus (ZIKV). On the procedure:
as §5

Where [5] appears, read: Zika virus, Vero C1008, Vero E6 cells, Table 1, read-out: IC50 against ZIKV strain PAN2016.
Setting [6] is: Zika virus, Vero C1008, Vero E6 cells, Table 1, read-out: IC50 against ZIKV strain R103451.
Where [7] appears, read: Zika virus, Vero C1008, Vero E6 cells, Table 1, read-out: IC50 against ZIKV strain PLCal_ZV.

Consider `C[C@H]1[C@H]2CC[C@H]3[C@@H]4CC=C5C[C@@H](N(C)C)CC[C@]5(C)[C@H]4CC[C@]23CN1C` [Conessine, conessine], for which, in the experiment on ZIKV PRVABC59 strain (gossypol + conessine), the “Fold of Enhancement” value came out at 7.29. The “CI (combination index)” value in the experiment with ZIKV PRVABC59 strain is given as 0.28. Also, in experiment [1], the “Binding to ZIKV full-length E protein (in words)” value is reported as “bound to no ZIKV proteins tested”. The “Binding to ZIKV NS2B-NS3 protein (in words)” value at ZIKV NS2B-NS3 protease is “bound to no ZIKV proteins tested”.
As for `COc1cc(/C=C/C(=O)CC(=O)/C=C/c2ccc(O)c(OC)c2)ccc1O` [Curcumin, curcumin], the “Fold of Enhancement” value in the experiment on ZIKV PRVABC59 strain (gossypol + curcumin) is listed as 6.46. In addition, in the experiment on ZIKV PRVABC59 strain, the “CI (combination index)” value is 0.30. The “Binding to ZIKV full-length E protein (in words)” value in experiment [1] was “much lower binding affinity”. The “Binding to ZIKV NS2B-NS3 protein (in words)” value on ZIKV NS2B-NS3 protease is listed as “much lower binding affinity”.
For the compound `C[C@@H]1CC[C@@]2(OC1)O[C@H]1[C@@H](O)[C@H]3[C@@H]4CC[C@H]5C[C@@H](O[C@@H]6O[C@H](CO)[C@H](O[C@@H]7O[C@H](CO)[C@@H](O)[C@H](O[C@@H]8OC[C@@H](O)[C@H](O)[C@H]8O)[C@H]7O[C@@H]7O[C@H](CO)[C@H](O)[C@H](O[C@@H]8O[C@H](CO)[C@@H](O)[C@H](O)[C@H]8O)[C@H]7O)[C@H](O)[C@H]6O)[C@H](O)C[C@]5(C)[C@H]4CC[C@]3(C)[C@H]1[C@@H]2C` [Digitonin, digitonin], in the experiment with ZIKV PRVABC59 strain (gossypol + digitonin), the “Fold of Enhancement” value came to 6.98. Further, the “CI (combination index)” value in the experiment on ZIKV PRVABC59 strain turned out to be 0.29. Moreover, the IC50 in experiment [2] (setting [5]) is 4.31 µM; in experiment [3] (setting [6]) it was 4.3 ± 0.43 µM; in experiment [4] (setting [7]) it was 3.19 ± 0.25 µM. Further, the “Binding to ZIKV full-length E protein (in words)” value in experiment [1] is on record as “bound to no ZIKV proteins tested”. In addition, the “Binding to ZIKV NS2B-NS3 protein (in words)” value at ZIKV NS2B-NS3 protease is “bound to no ZIKV proteins tested”.
`Cc1cc2c(C(C)C)c(O)c(O)c(C=O)c2c(O)c1-c1c(C)cc2c(C(C)C)c(O)c(O)c(C=O)c2c1O` [Gossypol, gossypol]: the IC50 in experiment [2] (setting [5]) was found to be 3.48 µM; in experiment [2] (Zika virus, Vero C1008, read-out: ZIKV strains IC50, PAN2016), 3.78 ± 0.3 µM; in experiment [3] (setting [6]) it was 2.28 ± 0.1 µM; in experiment [3] (Zika virus, Vero C1008, read-out: ZIKV strains IC50, R103451), 3.12 ± 0.38 µM; in experiment [4] (setting [7]), 1.98 ± 0.07 µM; in experiment [4] (Zika virus, Vero C1008, read-out: ZIKV strains IC50, PLCal_ZV), 2.88 ± 0.19 µM.
Consider `Cc1cc2c(C(C)C)c(O)c(O)c(/C=N/n3c(=O)[nH][nH]c3=O)c2c(O)c1-c1c(C)cc2c(C(C)C)c(O)c(O)c(/C=N/n3c(=O)[nH][nH]c3=O)c2c1O` [ST087010], for which the 50% inhibitory concentration (IC50) in experiment [2] (Vero E6 cells, Table 7, gossypol derivatives, read-out: ZIKV strains IC50, PAN2016) was 3.17 ± 0.18 µM; in experiment [3] (Vero E6 cells, Table 7, gossypol derivatives, read-out: ZIKV strains IC50, R103451), 3.6 ± 0.07 µM; in experiment [4] (Vero E6 cells, Table 7, gossypol derivatives, read-out: ZIKV strains IC50, PLCal_ZV) it was 2.21 ± 0.08 µM. Also, the EC50 turned out to be 6.47 µM in experiment [1] (detected with mAb ZKA64-LALA) and 21.9 µM at ZIKV NS2B-NS3 protease (detected with NS2B-NS3-immunized mouse sera, read-out: EC50, binding to ZIKV NS2B-NS3 protein).
